From ChEMBL document CHEMBL3994622, “Design and synthesis of new RAF kinase-inhibiting antiproliferative quinoline derivatives. Part 2: Diarylurea derivatives” (Eur J Med Chem, 2017) come the findings set out here.

Each structure is given as a SMILES string.

What all share (assay type): functional
Assay [1] deals with NCI-H322M. The experiment in a line: Growth inhibition of human NCI-H322M cells assessed as cell growth at 0.3 uM incubated for 48 hrs by sulforhodamine B assay relative to control. The conditions noted are these: read-out: Activity. Background: In SRB staining, fixed cells bind dye roughly in proportion to their protein.
In another assay the test system is U-251. The experiment in a line: Growth inhibition of human U251 cells assessed as cell growth at 30 uM incubated for 48 hrs by sulforhodamine B assay relative to control. Particulars: U-251, 48 h, read-out: Activity.
Another assay has as its system BT-549. The experiment in a line: Growth inhibition of human BT549 cells assessed as cell growth at 0.3 uM incubated for 48 hrs by sulforhodamine B assay relative to control. Particulars: BT-549, 48 h, read-out: Activity.
Another assay relates to HCT-116. The experiment in a line: Growth inhibition of human HCT116 cells assessed as cell growth at 3 uM incubated for 48 hrs by sulforhodamine B assay relative to control. Particulars: HCT-116, 48 h, read-out: Activity.
Another assay deals with UACC-62. The experiment in a line: Growth inhibition of human UACC62 cells assessed as cell growth at 3 uM incubated for 48 hrs by sulforhodamine B assay relative to control. Particulars: UACC-62, 48 h, read-out: Activity.
A further assay deals with SF-268. The experiment in a line: Growth inhibition of human SF268 cells assessed as cell growth at 30 uM incubated for 48 hrs by sulforhodamine B assay relative to control. Particulars: SF-268, 48 h, read-out: Activity.
The test system of assay [2] is NCI-H322M. The experiment in a line: Growth inhibition of human NCI-H322M cells assessed as cell growth at 10 uM incubated for 48 hrs by sulforhodamine B assay relative to control. Particulars: read-out: Activity.
For the next assay, the system named is OVCAR-4. The experiment in a line: Growth inhibition of human OVCAR4 cells assessed as cell growth at 0.003 uM incubated for 48 hrs by sulforhodamine B assay relative to control. The conditions noted are these: OVCAR-4, 48 h, read-out: Activity.
In assay [3] the test system is DU-145. The experiment in a line: Growth inhibition of human DU145 cells assessed as cell growth at 3 uM incubated for 48 hrs by sulforhodamine B assay relative to control. The conditions noted are these: DU-145, 48 h, read-out: Activity.
Another assay concerns HCC 2998. The experiment in a line: Growth inhibition of human HCC2998 cells assessed as cell growth at 0.3 uM incubated for 48 hrs by sulforhodamine B assay relative to control. Particulars: HCC 2998, 48 h, read-out: Activity.
A further assay deals with PC-3. The experiment in a line: Growth inhibition of human PC3 cells assessed as cell growth at 3 uM incubated for 48 hrs by sulforhodamine B assay relative to control. The conditions noted are these: PC-3, 48 h, read-out: Activity.
In a further assay the test system is IGROV-1. The experiment in a line: Growth inhibition of human IGROV1 cells assessed as cell growth at 3 uM incubated for 48 hrs by sulforhodamine B assay relative to control. The conditions noted are these: IGROV-1, 48 h, read-out: Activity.
The next assay concerns SF-295. The experiment in a line: Growth inhibition of human SF295 cells assessed as cell growth at 0.003 uM incubated for 48 hrs by sulforhodamine B assay relative to control. Particulars: SF-295, 48 h, read-out: Activity.
In assay [4] the test system is CAKI-1. The experiment in a line: Growth inhibition of human Caki1 cells assessed as cell growth at 0.003 uM incubated for 48 hrs by sulforhodamine B assay relative to control. Particulars: CAKI-1, 48 h, read-out: Activity.
Another assay has as its system MDA-MB-231. The experiment in a line: Growth inhibition of human MDA-MB-231 cells assessed as cell growth at 30 uM incubated for 48 hrs by sulforhodamine B assay relative to control. The conditions noted are these: MDA-MB-231, 48 h, read-out: Activity.
The next assay relates to MDA-MB-435. The experiment in a line: Growth inhibition of human MDA-MB-435 cells assessed as cell growth at 0.003 uM incubated for 48 hrs by sulforhodamine B assay relative to control. The conditions noted are these: MDA-MB-435, 48 h, read-out: Activity.
Another assay relates to NCI-H226. The experiment in a line: Growth inhibition of human NCI-H226 cells assessed as cell growth at 0.003 uM incubated for 48 hrs by sulforhodamine B assay relative to control. The conditions noted are these: NCI-H226, 48 h, read-out: Activity.
For a further assay, the system named is SK-OV-3. The experiment in a line: Growth inhibition of human SKOV3 cells assessed as cell growth at 0.3 uM incubated for 48 hrs by sulforhodamine B assay relative to control. The conditions noted are these: SK-OV-3, 48 h, read-out: Activity.
Assay [5] relates to Malme-3M. The experiment in a line: Growth inhibition of human MALME-3M cells assessed as cell growth at 0.3 uM incubated for 48 hrs by sulforhodamine B assay relative to control. Particulars: read-out: Activity.
Assay [6] deals with CCRF-CEM. The experiment in a line: Growth inhibition of human CCRF-CEM cells assessed as cell growth at 30 uM incubated for 48 hrs by sulforhodamine B assay relative to control. The conditions noted are these: read-out: Activity.
Assay [7] deals with HCT-15. The experiment in a line: Growth inhibition of human HCT15 cells assessed as cell growth at 0.3 uM incubated for 48 hrs by sulforhodamine B assay relative to control. Particulars: HCT-15, 48 h, read-out: Activity.
For the next assay, the system named is RXF 393. The experiment in a line: Growth inhibition of human RXF393 cells assessed as cell growth at 0.03 uM incubated for 48 hrs by sulforhodamine B assay relative to control. Particulars: RXF 393, 48 h, read-out: Activity.
Assay [8] has as its system DU-145. The experiment in a line: Growth inhibition of human DU145 cells assessed as cell growth at 0.03 uM incubated for 48 hrs by sulforhodamine B assay relative to control. Particulars: DU-145, 48 h, read-out: Activity.
The subject of assay [9] is HCT-15. The experiment in a line: Growth inhibition of human HCT15 cells assessed as cell growth at 0.1 uM incubated for 48 hrs by sulforhodamine B assay relative to control. Particulars: HCT-15, 48 h, read-out: Activity.
Assay [10] concerns CAKI-1. The experiment in a line: Growth inhibition of human Caki1 cells assessed as cell growth at 0.1 uM incubated for 48 hrs by sulforhodamine B assay relative to control. Particulars: CAKI-1, 48 h, read-out: Activity.
For assay [11], the system named is Malme-3M. The experiment in a line: Growth inhibition of human MALME-3M cells assessed as cell growth at 10 uM incubated for 48 hrs by sulforhodamine B assay relative to control. The conditions noted are these: read-out: Activity.
The subject of another assay is RPMI-8226. The experiment in a line: Growth inhibition of human RPMI8226 cells assessed as cell growth at 100 uM incubated for 48 hrs by sulforhodamine B assay relative to control. Particulars: RPMI-8226, 48 h, read-out: Activity.
The test system of the next assay is OVCAR-8. The experiment in a line: Growth inhibition of human OVCAR8 cells assessed as cell growth at 10 uM incubated for 48 hrs by sulforhodamine B assay relative to control. The conditions noted are these: OVCAR-8, 48 h, read-out: Activity.
The subject of assay [12] is CCRF-CEM. The experiment in a line: Growth inhibition of human CCRF-CEM cells assessed as cell growth at 0.1 uM incubated for 48 hrs by sulforhodamine B assay relative to control. The conditions noted are these: read-out: Activity.
A further assay concerns HOP-92. The experiment in a line: Growth inhibition of human HOP92 cells assessed as cell growth at 1 uM incubated for 48 hrs by sulforhodamine B assay relative to control. The conditions noted are these: HOP-92, 48 h, read-out: Activity.
For another assay, the system named is LOX IMVI. The experiment in a line: Growth inhibition of human LOXIMVI cells assessed as cell growth at 1 uM incubated for 48 hrs by sulforhodamine B assay relative to control. The conditions noted are these: read-out: Activity.
The test system of another assay is OVCAR-3. The experiment in a line: Growth inhibition of human OVCAR3 cells assessed as cell growth at 10 uM incubated for 48 hrs by sulforhodamine B assay relative to control. The conditions noted are these: OVCAR-3, 48 h, read-out: Activity.
The subject of assay [13] is CAKI-1. The experiment in a line: Growth inhibition of human Caki1 cells assessed as cell growth at 100 uM incubated for 48 hrs by sulforhodamine B assay relative to control. The conditions noted are these: CAKI-1, 48 h, read-out: Activity.
The test system of a further assay is NCI-H522. The experiment in a line: Growth inhibition of human NCI-H522 cells assessed as cell growth at 10 uM incubated for 48 hrs by sulforhodamine B assay relative to control. The conditions noted are these: NCI-H522, 48 h, read-out: Activity.

Take `Cc1nc2cc(O)c(O)cc2cc1Oc1ccc(NC(=O)Nc2ccc(Cl)c(Cl)c2)cc1`: the growth at 0.3 µM in the assay with NCI-H322M [1] amounted to 110%; in the assay with BT-549, 92%; in the assay with HCC 2998 it was 97%; with SK-OV-3, 108%; in the assay on Malme-3M [5] it was 81%; in the assay on HCT-15 [7] it was 101%. For the same compound, the growth at 30 µM is 3% in the assay with U-251, 1% with SF-268, 6% in the assay on MDA-MB-231 and -16% in the assay with CCRF-CEM [6]. In addition, the growth at 3 µM was found to be 42% in the assay with HCT-116; 91% with UACC-62; 82% in the assay on DU-145 [3]; 56% in the assay with PC-3; 95% with IGROV-1. For the same compound, the growth at 10 µM with NCI-H322M [2] came to 94%. Moreover, the growth at 0.003 µM in the assay with OVCAR-4 amounted to 97%; with SF-295 it was 93%; in the assay on CAKI-1 [4] it was 97%; in the assay on MDA-MB-435 it was 94%; in the assay on NCI-H226, 101%. The growth at 0.03 µM in the assay on RXF 393 stood at 96%; in the assay with DU-145 [8], 111%.
Turning to `COc1cc2cc(Oc3ccc(NC(=O)Nc4ccc(Cl)c(C(F)(F)F)c4)cc3)c(C)nc2cc1OC`, the growth at 0.3 µM in the assay with NCI-H322M [1] is 112%; in the assay on BT-549 it was 85%; with HCC 2998 it was 109%; with SK-OV-3, 103%; in the assay with Malme-3M [5] it was 110%; in the assay with HCT-15 [7] it was 91%. For the same compound, the growth at 30 µM is -89% in the assay on U-251, -64% with SF-268, -74% in the assay on MDA-MB-231 and -38% in the assay with CCRF-CEM [6]. The growth at 3 µM in the assay on HCT-116 is 7%; in the assay with UACC-62 it was 28%; in the assay with DU-145 [3], 17%; in the assay on PC-3 it was -3%; in the assay with IGROV-1, 39%. Further, the growth at 0.003 µM in the assay with OVCAR-4 was determined as 93%; with SF-295, 90%; with CAKI-1 [4], 93%; in the assay on MDA-MB-435, 98%; with NCI-H226, 96%. The growth at 0.03 µM with RXF 393 was 104%; in the assay with DU-145 [8] it was 96%.
With `COc1cc2cc(Oc3ccc(NC(=O)Nc4ccc(Cl)c(Cl)c4)cc3)c(C)nc2cc1OC`, the growth at 0.1 µM in the assay on HCT-15 [9] turned out to be 102%; in the assay with CAKI-1 [10] it was 87%; in the assay with CCRF-CEM [12], 104%. Besides, the growth at 10 µM is -14% with Malme-3M [11], 13% with OVCAR-8, -25% in the assay with OVCAR-3 and -5% in the assay on NCI-H522. For the same compound, the growth at 100 µM with RPMI-8226 is -47%; in the assay with CAKI-1 [13], -64%. Also, the growth at 1 µM in the assay on HOP-92 turned out to be 91%; in the assay on LOX IMVI it was 85%.
Take `COc1cc2cc(Oc3ccc(NC(=O)Nc4cc(C(F)(F)F)cc(C(F)(F)F)c4)cc3)c(C)nc2cc1OC`: the growth at 0.1 µM with HCT-15 [9] is 94%; with CAKI-1 [10], 90%; with CCRF-CEM [12] it was 97%. In addition, the growth at 10 µM is -46% in the assay on Malme-3M [11]; 14.9% in the assay on NCI-H322M [2]; -46% with OVCAR-8; -90% in the assay on OVCAR-3; -71% in the assay on NCI-H522. The growth at 100 µM is -34% with RPMI-8226 and -60% in the assay on CAKI-1 [13]. Moreover, the growth at 1 µM in the assay with HOP-92 is 54%; in the assay with LOX IMVI it was 75%.
